Where a name gives a salt, the structure may show the parent alone.
Target: PDE4B (Homo sapiens, UniProt Q07343)
Assay: Scintillation Proximity (SPA) assay, inhibition of PDE4B at 1 μM
Assay type: biochemical
Conditions: Table A; test substance 1 μM; one hour incubation with [H3]-cAMP at 30° C.
Method: The inhibitions (in %) at 1 μM of the individual Example substances are included in the following Tables of Examples and were determined as follows:
The Scintilation Proximity (SPA) Assays (GE Healthcare, No. TRKQ7090) make use of the different affinities of cyclic 3″-5″-adenosine monophosphate (cAMP, low affinity) and linear 5′-adenosine monophosphate (AMP, high affinity) for yttrium silicate scintillator beads. The cAMP specific phosphodiesterase (PDE) PDE4B cleaves the 3′-phosphoester bond of the tritium-labelled [H3]-cAMP to form the [H3]-5′-AMP. Because of its higher affinity for the scintillator beads this [H3]-AMP accumulates on the beads and causes scintillation events (flashes of light) which are measured in a Wallac Microbeta Scintillation Counter.
The test starts with one hour's incubation of [H3]-cAMP with the PDE4B enzyme in assay buffer at 30° C., once with the Example substance that is to be tested (in a concentration of 1 μM) and once without the Example substance that is to be tested. After this incubation the reaction is stopped by the addition of the beads. The beads are given an opportunity to settle over the next 45 minutes, then they are measured in the Scintillation Counter. If the substance is capable of inhibiting the enzymatic activity of the PDE4B, less [H3]-AMP is formed during the incubation phase and fewer scintillation events can be measured.

PDE4B, sequence (Q07343 whole entry, species assumed): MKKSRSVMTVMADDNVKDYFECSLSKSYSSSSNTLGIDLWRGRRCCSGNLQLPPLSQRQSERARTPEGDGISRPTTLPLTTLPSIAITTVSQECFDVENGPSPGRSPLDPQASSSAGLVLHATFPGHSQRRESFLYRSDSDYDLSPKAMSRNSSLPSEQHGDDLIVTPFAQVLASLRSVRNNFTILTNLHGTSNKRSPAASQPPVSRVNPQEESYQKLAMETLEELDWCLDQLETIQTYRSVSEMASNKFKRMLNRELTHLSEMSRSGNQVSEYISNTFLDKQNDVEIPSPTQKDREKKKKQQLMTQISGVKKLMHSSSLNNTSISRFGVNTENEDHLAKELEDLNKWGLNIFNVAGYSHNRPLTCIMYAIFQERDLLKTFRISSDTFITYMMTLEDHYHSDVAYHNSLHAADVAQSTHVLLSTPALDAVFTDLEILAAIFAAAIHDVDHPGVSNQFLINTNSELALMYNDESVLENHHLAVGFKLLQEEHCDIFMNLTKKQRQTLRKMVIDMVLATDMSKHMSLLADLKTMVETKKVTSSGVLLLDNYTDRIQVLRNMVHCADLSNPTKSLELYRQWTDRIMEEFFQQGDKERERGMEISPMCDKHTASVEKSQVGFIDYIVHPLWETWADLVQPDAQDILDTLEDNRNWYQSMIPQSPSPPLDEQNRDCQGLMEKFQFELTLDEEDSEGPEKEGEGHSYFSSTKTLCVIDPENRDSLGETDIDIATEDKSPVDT

Row | SMILES | inhibition at 1 µM
1 | CC(C)[C@H](CO)Nc1nc(N2CCN(c3ccc(Cl)cc3)C[C@H]2C)nc2c1[S+]([O-])CC2 (stereo partly drawn) [Example 1, (R)-2-{2-[(R)-4-(4-chlorophenyl)-2-methylpiperazin-1-yl]-5-oxo-6,7-dihydro-5H-5λ^4-thieno[3,2-d]pyrimidin-4-ylamino}-3-methylbutan-1-ol] | 84%
2 | CC(C)[C@H](CO)Nc1nc(N2CCN(c3ccc(Cl)cc3)C[C@@H]2C)nc2c1[S+]([O-])CC2 (stereo partly shown) [Example 2] | 94%
3 | C[C@H]1CN(c2ccc(Cl)cc2)CCN1c1nc2c(c(N[C@H]3CCC(=O)N(C)C3)n1)[S+]([O-])CC2 (stereo partly shown) [Example 3] | 96%
4 | C[C@H]1CN(c2ccc(Cl)cc2)CCN1c1nc2c(c(NC3CCOCC3)n1)[S+]([O-])CC2 (stereo partly shown) [Example 4] | 95%
5 | [O-][S+]1CCc2nc(N3CC4CC3CN4c3ccc(Cl)cc3)nc(NC3CCOCC3)c21 (stereo not shown) [Example 6] | 95%
6 | [O-][S+]1CCc2nc(N3CC4CC3CN4c3ccc(Cl)cc3)nc(Nc3cccc(F)c3)c21 (stereo not shown) [Example 7] | 95%
7 | CN1C[C@@H](Nc2nc(N3C[C@H]4CC3CN4c3ccc(Cl)cc3)nc3c2[S+]([O-])CC3)CCC1=O (stereo partly drawn) [Example 9, (S)-5-{2-[5-(4-chlorophenyl)-2,5-diazabicyclo[2,2,1]hept-2-yl]-5-oxo-6,7-dihydro-5H-5λ^4-thieno[3,2-d]pyrimidin-4-ylamino}-1-methylpiperidin-2-one] | 96%
8 | C[C@H]1CN(c2ccc(Cl)cc2)CCN1c1nc2c(c(Nc3cccc(F)c3)n1)[S+]([O-])CC2 (stereo partly shown) [Example 10] | 94%
9 | O=C1CN(c2nc3c(c(NC4CCOCC4)n2)[S+]([O-])CC3)CCN1c1ccc(Br)cc1 (stereo not shown) [Example 12] | 93%
10 | O=C1CN(c2nc3c(c(NC4CCOCC4)n2)[S+]([O-])CC3)CCN1c1cccc(Br)c1 (stereo not shown) [Example 14] | 92%
11 | CN1C[C@@H](Nc2nc(N3CCN(c4ccccc4)C(=O)C3)nc3c2[S+]([O-])CC3)CCC1=O (stereo partly shown) [Example 17] | 96%
12 | O=C1CN(c2nc3c(c(NC4CCOCC4)n2)[S+]([O-])CC3)CCN1c1ccccc1 (stereo not shown) [Example 18] | 93%
13 | O=C1CN(c2nc3c(c(Nc4cccc(F)c4)n2)[S+]([O-])CC3)CCN1c1ccccc1 (stereo not shown) [Example 19] | 95%
14 | [O-][S+]1CCc2nc(N3CC4CC3CN4c3ccc(Br)cc3)nc(NC3CCOCC3)c21 (stereo not shown) [Example 20] | 95%
15 | [O-][S+]1CCc2nc(N3C[C@H]4CC3CN4c3ccc(Br)cc3)nc(Nc3cccc(F)c3)c21 (stereo partly shown) [Example 21, {2-[5-(4-bromophenyl)-2,5-diazabicyclo[2,2,1]hept-2-yl]-5-oxo-6,7-dihydro-5H-5λ^4-thieno[3,2-d]pyrimidin-4-yl}-(3-fluorophenyl)-amine] | 95%
16 | [O-][S+]1CCc2nc(N3CC4CC3CN4c3cccc(F)c3)nc(NC3CCOCC3)c21 (stereo not shown) [Example 25] | 94%
17 | [O-][S+]1CCc2nc(N3CC4CC3CN4c3ccc(F)cc3)nc(NC3CCOCC3)c21 (stereo not shown) [Example 26] | 94%
18 | [O-][S+]1CCc2nc(N3C4CCC3CN(c3ccc(Br)cc3)C4)nc(NC3CCOCC3)c21 (stereo not shown) [Example 27] | 97%
19 | [O-][S+]1CCc2nc(N3C4CC[C@@H]3CN(c3ccc(Br)cc3)C4)nc(NC3(CO)CC3)c21 (stereo partly shown) [Example 28, (1-{2-[3-(4-bromophenyl)-3,8-diazabicyclo[3.2.1]oct-8-yl]-5-oxo-6,7-dihydro-5H-5λ^4-thieno[3,2-d]pyrimidin-4-ylamino}-cyclopropyl)-methanol trifluoroacetate] | 97%
20 | [O-][S+]1CCc2nc(N3C[C@H]4CC3CN4c3nc4ccccc4o3)nc(NC3CCOCC3)c21 (stereo partly shown) [Example 29, [2-(5-benzoxazol-2-yl-2,5-diazabicyclo[2,2,1]hept-2-yl)-5-oxo-6,7-dihydro-5H-5λ^4-thieno[3,2-d]pyrimidin-4-yl]-(tetrahydropyran-4-yl)-amine] | 97%

Other lines, results leading:

Row | inhibition at 1 µM | SMILES
21 | 95% | C[C@H]1CN(c2ccc(Cl)cc2)CCN1c1nc2c(c(NC3(CO)CC3)n1)[S+]([O-])CC2 (stereo partly shown) [Example 5]
22 | 95% | [O-][S+]1CCc2nc(N3CC4CC3CN4c3ccc(Cl)cc3)nc(NC3(CO)CC3)c21 (stereo not shown) [Example 8]
23 | 90% | O=C1CN(c2nc3c(c(NC4(CO)CC4)n2)[S+]([O-])CC3)CCN1c1ccc(Br)cc1 (stereo not shown) [Example 11]
24 | 19% | O=C1CN(c2nc3c(c(NC4(CO)CC4)n2)[S+]([O-])CC3)CCN1c1cccc(Br)c1 (stereo not shown) [Example 13]
25 | 77% | CC(C)[C@H](CO)Nc1nc(N2CCN(c3ccccc3)C(=O)C2)nc2c1[S+]([O-])CC2 (stereo partly shown) [Example 15]
26 | 86% | O=C1CN(c2nc3c(c(NC4(CO)CC4)n2)[S+]([O-])CC3)CCN1c1ccccc1 (stereo not shown) [Example 16]
27 | 95% | [O-][S+]1CCc2nc(N3CC4CC3CN4c3ccc(Br)cc3)nc(NC3(CO)CC3)c21 (stereo not shown) [Example 22]
28 | 93% | [O-][S+]1CCc2nc(N3CC4CC3CN4c3cccc(F)c3)nc(NC3(CO)CC3)c21 (stereo not shown) [Example 23]
29 | 93% | [O-][S+]1CCc2nc(N3C[C@H]4CC3CN4c3ccc(F)cc3)nc(NC3(CO)CC3)c21 (stereo partly shown) [Example 24, (1-{2-[5-(4-fluorophenyl)-2,5-diazabicyclo[2,2,1]hept-2-yl]-5-oxo-6,7-dihydro-5H-5λ^4-thieno[3,2-d]pyrimidin-4-ylamino}-cyclopropyl)-methanol]

Same assay, conditions: Table C; test substance 1 μM; one hour incubation with [H3]-cAMP at 30° C.

Row | SMILES | inhibition at 1 µM
30 | [O-][S+]1CCc2nc(N3CCn4c(nnc4-c4ccc(F)cc4)C3)nc(NC3CCOCC3)c21 (stereo not shown) [Example 35] | 94%
31 | [O-][S+]1CCc2nc(N3CCn4c(Cc5ccc(Cl)c(Cl)c5)nnc4C3)nc(NC3CCOCC3)c21 (stereo not shown) [Example 36] | 93%
32 | [O-][S+]1CCc2nc(N3CCn4c(nnc4-c4ccc(F)cc4)C3)nc(Nc3cccc(F)c3)c21 (stereo not shown) [Example 39, (3-fluorophenyl)-{2-[3-(4-fluorophenyl)-5,6-dihydro-8H-[1,2,4]triazolo[4,3-a]pyrazin-7-yl]-5-oxo-6,7-dihydro-5H-5λ^4-thieno[3,2-d]pyrimidin-4-yl}-amine] | 95%
33 | [O-][S+]1CCc2nc(N3CCn4c(Cc5ccc(Cl)c(Cl)c5)nnc4C3)nc(Nc3cccc(F)c3)c21 (stereo not shown) [Example 40, {2-[3-(3,4-dichlorobenzyl)-5,6-dihydro-8H-[1,2,4]triazolo[4,3-a]pyrazin-7-yl]-5-oxo-6,7-dihydro-5H-5λ^4-thieno[3,2-d]pyrimidin-4-yl}-(3-fluorophenyl)-amine] | 94%

Next, values leading:

Row | inhibition at 1 µM | SMILES
34 | 95% | CCOC(=O)c1cn2c(n1)CN(c1nc3c(c(NC4(CO)CC4)n1)[S+]([O-])CC3)CC2 (stereo not shown) [Example 30]
35 | 93% | [O-][S+]1CCc2nc(N3CCn4c(nnc4-c4ccc(F)cc4)C3)nc(NC3(CO)CC3)c21 (stereo not shown) [Example 31]
36 | 91% | [O-][S+]1CCc2nc(N3CCn4c(Cc5ccc(Cl)c(Cl)c5)nnc4C3)nc(NC3(CO)CC3)c21 (stereo not shown) [Example 32]
37 | 75% | [O-][S+]1CCc2nc(N3CCn4cnnc4C3)nc(NC3(CO)CC3)c21 (stereo not shown) [Example 33, {1-[2-(5,6-DIHYDRO-8H-[1,2,4]TRIAZOLO[4,3-A]PYRAZIN-7-YL)-5-OXO-6,7-DIHYDRO-5H-5λ^4-THIENO[3,2-D]PYRIMIDIN-4-YLAMINO]-CYCLOPROPYL}-METHANOL TRIFLUORACETATE]
38 | 95% | CCOC(=O)c1cn2c(n1)CN(c1nc3c(c(NC4CCOCC4)n1)[S+]([O-])CC3)CC2 (stereo not shown) [Example 34]
39 | 87% | [O-][S+]1CCc2nc(N3CCn4cnnc4C3)nc(NC3CCOCC3)c21 (stereo not shown) [Example 37, [2-(5,6-DIHYDRO-8H-[1,2,4]TRIAZOLO[4,3-A]PYRAZIN-7-YL)-5-OXO-6,7-DIHYDRO-5H-5λ^4-THIENO[3,2-D]PYRIMIDIN-4-YL]-(TETRAHYDRO-PYRAN-4-YL)-AMINE TRIFLUOROACETATE]
40 | 95% | CCOC(=O)c1cn2c(n1)CN(c1nc3c(c(Nc4cccc(F)c4)n1)[S+]([O-])CC3)CC2 (stereo not shown) [Example 38]
41 | 90% | [O-][S+]1CCc2nc(N3CCn4cnnc4C3)nc(Nc3cccc(F)c3)c21 (stereo not shown) [Example 41, [2-(5,6-DIHYDRO-8H-[1,2,4]TRIAZOLO[4,3-A]PYRAZIN-7-YL)-5-OXO-6,7-DIHYDRO-5H-5λ^4-THIENO[3,2-D]PYRIMIDIN-4-YL]-(3-FLUOROPHENYL)-AMINE TRIFLUOROACETATE]
42 | 94% | CCOC(=O)c1cn2c(n1)CN(c1nc3c(c(N[C@@H](CO)C(C)C)n1)[S+]([O-])CC3)CC2 (stereo partly shown) [Example 42]
43 | 88% | CC(C)[C@H](CO)Nc1nc(N2CCn3c(nnc3-c3ccc(F)cc3)C2)nc2c1[S+]([O-])CC2 (stereo partly shown) [Example 43]
44 | 78% | CC(C)[C@H](CO)Nc1nc(N2CCn3c(Cc4ccc(Cl)c(Cl)c4)nnc3C2)nc2c1[S+]([O-])CC2 (stereo partly shown) [Example 44]
45 | 55% | CC(C)[C@H](CO)Nc1nc(N2CCn3cnnc3C2)nc2c1[S+]([O-])CC2 (stereo partly drawn) [Example 45, (R)-2-[2-(5,6-DIHYDRO-8H-[1,2,4]TRIAZOLO[4,3-A]PYRAZIN-7-YL)-5-OXO-6,7-DIHYDRO-5H-5λ^4-THIENO[3,2-D]PYRIMIDIN-4-YLAMINO]-3-METHYL-BUTAN-1-OL TRIFLUOROACETATE]

Same assay, conditions: Table D; test substance 1 μM; one hour incubation with [H3]-cAMP at 30° C.

Row | inhibition at 1 µM | SMILES
46 | 97% | CCOC(=O)c1cn2c(n1)CN(c1nc3c(c(N[C@H]4CCC(=O)N(C)C4)n1)[S+]([O-])CC3)CC2 (stereo partly shown) [Example 46]
